Patent US9962420B2, “Compositions and methods for treating diabetes, fatty liver, cardiopathies, insulin resistance, carbohydrate and fat metabolism” (VALBIOTIS, priority 2014, dated 2018)
Like-named read-outs stand apart in the source and are kept apart here.

Key:
[1] = tested on: db/db mice; assay: Fasting glycemia (Tests A); type: in vivo; conditions: Colby method
Experimental: (§3) The experiments were performed on db/db mice. db/db mice have a mutation of the leptin receptors inducing a cell signaling dysfunction of the latter. […] These mice are insulin resistant, hypertriglyceridemic and glucose-intolerant.
(§4) The evaluations presented were performed just before the supplementation (t=0) and at the end of supplementation (t=8 weeks).

[2] = tested on: db/db mice; assay: Oral test of carbohydrate tolerance, starch force-feeding (Tests A); type: in vivo; conditions: Colby method
Experimental: The experiments were performed on db/db mice. db/db mice have a mutation of the leptin receptors inducing a cell signaling dysfunction of the latter. The leptin receptors are highly expressed in the hypothalamus. Mice having a mutation of these receptors cannot efficiently regulate their energy stores. […] These mice are insulin resistant, hypertriglyceridemic and glucose-intolerant. They constitute a pertinent and predictive model especially for studying insulin sensitivity, triglyceridemia, type 2 diabetes and one of its complications, non-alcoholic steatohepatitis (NASH) (Aileen J F King Br J Pharmacol 2012; 166(3):877-894; Sanches S C et al. Biomed Res Int 2015).
The experimental time was nine weeks with a “run-in” of one week followed by eight weeks of supplementation with the plant extracts and a composition X. The male mice were ten weeks old at the start of the treatment.
Nine compositions X were tested. […]
The experimental evaluations focused especially on: • Measurement of the body mass; • Measurement of the fasting glycemia; • The change in glycemia during an oral test of carbohydrate tolerance. After force-feeding with starch (3 g/kg) in the fasted state, the change in glycemia in response to starch was measured in the tail by biopsy just before the force-feeding (t0) and then after 30, 60, 90 and 120 minutes. The area under the curve (AUC) was calculated. […]

[3] = tested on: db/db mice; assay: Body mass (Tests A); type: in vivo; conditions: after eight weeks in feed
Experimental: as §3, §4

[4] = tested on: db/db mice; conditions: highest dose, same model of db/db mice and similar experimental design; cited from earlier work
[5] = tested on: db/db mice; assay: Body mass, fat mass and lean mass by MRI (Tests B); type: in vivo; conditions: six weeks in feed, mean ± SEM
Source text: (§1) Using this predictive model of diabetic mice and incorporating composition C10 directly into the rodents' feed (1% Chrysanthellum indicum, 1% Cynara scolymus, 0.1% Vaccinium myrtillus, 0.001% Piper nigrum and 0.6% Olea europaea of the feed), this makes it possible to ensure its “multi-target” efficacy and its large-scale use, since intravenous or intraperitoneal injections are limited to a small number of people, given their mode of administration.
(§2) The experimental time was seven weeks with a “run-in” of one week followed by six weeks of supplementation with composition C10. The male mice were six weeks old at the start of the treatment. The evaluations were made just before the supplementation (t=0), weekly for certain parameters, and at the end of supplementation (t=6 weeks). […]

[6] = tested on: db/db mice; assay: Fasting glycemia (Tests B); type: in vivo; conditions: six weeks in feed, mean ± SEM
Source text: as §1, §2

[7] = tested on: db/db mice; assay: Glycated hemoglobin HbA1c (Tests B); type: in vivo; conditions: six weeks in feed, mean ± SEM
Source text: as §1, §2

[8] = tested on: db/db mice; assay: Insulin sensitivity test (Tests B); type: in vivo; conditions: six weeks in feed, mean ± SEM
Experimental: For compositions C7 to C9, an insulin sensitivity test was also performed. […] The change in glycemia in response to the insulin injection was measured in the tail by biopsy just before the injection (t0) and then after 30, 60, 90 and 120 minutes. The area under the curve (AUC) was calculated. A decrease in the AUC reflects a better response to the insulin injection and thus an improvement in the insulin sensitivity. Conversely, an increase in the AUC reflects poorer insulin sensitivity and thus insulin resistance.
as §1, §2

[9] = tested on: db/db mice; assay: Hepatic and serum triglycerides, serum HDL cholesterol (Tests B); type: in vivo; conditions: six weeks in feed, mean ± SEM
Source text: The experimental time was seven weeks with a “run-in” of one week followed by six weeks of supplementation with composition C10. The male mice were six weeks old at the start of the treatment. The evaluations were made just before the supplementation (t=0), weekly for certain parameters, and at the end of supplementation (t=6 weeks).
The experimental evaluations related especially to: • Measurement of the feed intake (t1, t2, t3, t4 and t5 weeks); • Measurement of the body mass (t0, t1, t2, t3, t4, t5, t6 weeks); • Measurement of the fat mass and lean mass by MRI (magnetic resonance imaging; t0 and t6 weeks); • Measurement of the fasting glycemia (t0, t1, t2, t3, t4, t5, t6 weeks); • Measurement of the glycated hemoglobin (HbA1c; t6 weeks); • The insulin sensitivity (test identical to that performed in Tests A; t0 and t6 weeks); • The carbohydrate tolerance (test identical to that performed in Tests A; t0 and t6 weeks); • Measurement of the hepatic and serum triglycerides (t6 weeks); • Measurement of the serum HDL cholesterol (t6 weeks).

[10] = p<0.01; cited from earlier work
[11] = target: T1, HMG-CoA reductase (Catalytic domain of the human enzyme, recombinant GST fusion protein expressed in E. Coli) (Homo sapiens, UniProt P04035); assay: Test of inhibition of HMG-CoA reductase; type: biochemical; conditions: concentration of sample set at 60 μg/mL
T1 construct: (Catalytic domain of); GST; purchased Sigma
T1 sequence (P04035 340-888 limits assumed): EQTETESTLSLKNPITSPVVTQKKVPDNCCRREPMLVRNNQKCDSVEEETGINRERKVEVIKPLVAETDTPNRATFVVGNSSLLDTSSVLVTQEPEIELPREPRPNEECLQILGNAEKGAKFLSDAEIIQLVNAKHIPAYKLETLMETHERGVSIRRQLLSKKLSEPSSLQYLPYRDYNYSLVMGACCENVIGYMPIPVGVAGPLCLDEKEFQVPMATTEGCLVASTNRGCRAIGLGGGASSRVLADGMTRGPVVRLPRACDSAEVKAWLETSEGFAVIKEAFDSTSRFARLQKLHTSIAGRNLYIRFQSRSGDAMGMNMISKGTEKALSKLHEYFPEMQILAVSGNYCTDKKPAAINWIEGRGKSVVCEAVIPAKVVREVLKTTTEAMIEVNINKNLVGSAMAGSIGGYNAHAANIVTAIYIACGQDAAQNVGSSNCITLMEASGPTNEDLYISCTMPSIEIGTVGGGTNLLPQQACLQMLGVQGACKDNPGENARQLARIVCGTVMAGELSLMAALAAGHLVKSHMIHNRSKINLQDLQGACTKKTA
Experimental: The molecules were diluted either in 90/10 (v/v) ultra-pure water/DMSO or in 50/50 (v/v) ultra-pure water/ethanol.
The reaction mechanism is as follows: HMG-CoA+2NADPH+2H^+ ? mevalonate+2NADP^++CoA-SH
Disappearance of the substrate NADPH (absorbing at 340 nm) is thus monitored over time.
In a first stage, the solutions need to be prepared from the Sigma® kit: • the 5× buffer supplied must be diluted to a concentration of 1× in ultra-pure water; • the NADPH is dissolved by adding 1× buffer, and then distributed in 100 μL tubes; • the starting enzyme solution is distributed in 25 μL aliquots.
The manipulations were performed directly in 96-well microplates (NUNC96 or [sequence]96). […]
After preparing the plate, the kinetic monitoring was performed in a microplate reader (BMG Labtech) over 16 minutes, 25 seconds, with values taken every 25 seconds at λ=340 nm, i.e. a total of 40 cycles. From this, the percentages of inhibition could be calculated.
In general, irrespective of the test, for a given concentration of an inhibitor, a curve of equation: absorbance=f(time) (in minutes) was prepared. […]
Depending on the types of tests, the percentages of inhibition of the various enzymes were calculated via various methods: • for the tests for inhibition of HMG-CoA reductase and of α-glucosidases, the calculation formula is identical: […]

In the case of `O=C(/C=C/C=C/c1ccc2c(c1)OCO2)N1CCCCC1` [Composition C5, piperine], the “Observed degree of efficacy (in % of the control group), fasting glycemia after eight weeks of treatment” value [1] is reported as −13.3%, the “Observed degree of efficacy (in % of the control group), oral test of carbohydrate tolerance, AUC (week 8 − week 0)” value [2] is reported as −82.3% and the “Body mass (mean ± SEM)” value [3] is reported as 32.7 ± 1.5 g.
For `CSc1ccc(C(=O)/C=C/c2cc(C)c(OC(C)(C)C(=O)O)c(C)c2)cc1` [GFT 505, Elafibranor], the HbA1c [4] is listed as 6%.
`CN(C)C(=N)N=C(N)N` [Metformin, metformin] gave a Body mass [5] of 40.8 ± 2.1 g, a Fasting glycemia [6] of 474 ± 24 mg/dL and a HbA1c [7] of 7.59 ± 0.24%. For the same compound, the “Area under the curve measured during an test of insulin sensitivity (AUC)” value [8] was 32778 ± 3166 mg·min/dL, the Serum triglycerides [9] was 256.23 ± 28.19 mg/dL and the HDL cholesterol ([9]; serum) was 99.21 ± 6.03 mg/dL.
In the case of `CC[C@H]1[C@@H](O)[C@@H]2[C@H](CC[C@]3(C)[C@@H]([C@H](C)CCC(=O)O)CC[C@@H]23)[C@@]2(C)CC[C@@H](O)C[C@@H]12` [OCA, obeticholic acid], the “Reduction of circulating HDL cholesterol” value [10] is listed as -0.2 g/L.
In the case of `CC[C@H](C)C(=O)O[C@H]1C[C@H](O)C=C2C=C[C@H](C)[C@H](CC[C@@H](O)C[C@@H](O)CC(=O)O)[C@H]21` [Pravastatin], the “% of inhibition HMG-CoA reductase” value [11] is reported as 100% and the inhibition at 60 µg/mL [11] is reported as 100%.
